# Measured values taken from patent publication US10532053B2, “Histone deacetylase inhibitor, and preparation method and use thereof” (GUANGDONG ZHONGSHENG PHARMACEUTICAL CO., LTD, priority 2015, dated 2020).
# Like-named read-outs stand apart in the source and are kept apart here.
# Legend:
# [1] = cited from earlier work
# HDAC6 = target: T1, HDAC6 (Homo sapiens, UniProt Q9UBN7); assay: HDAC inhibitory activity, fluorescence-coupled acetylated peptide substrate assay; assay type: biochemical; details: for Selection Ratio HDAC1/6: ratio of IC50 HDAC1 to HDAC6; for Selection Ratio HDAC8/6: ratio of IC50 HDAC8 to HDAC6
# T1 sequence (Q9UBN7 1-1215): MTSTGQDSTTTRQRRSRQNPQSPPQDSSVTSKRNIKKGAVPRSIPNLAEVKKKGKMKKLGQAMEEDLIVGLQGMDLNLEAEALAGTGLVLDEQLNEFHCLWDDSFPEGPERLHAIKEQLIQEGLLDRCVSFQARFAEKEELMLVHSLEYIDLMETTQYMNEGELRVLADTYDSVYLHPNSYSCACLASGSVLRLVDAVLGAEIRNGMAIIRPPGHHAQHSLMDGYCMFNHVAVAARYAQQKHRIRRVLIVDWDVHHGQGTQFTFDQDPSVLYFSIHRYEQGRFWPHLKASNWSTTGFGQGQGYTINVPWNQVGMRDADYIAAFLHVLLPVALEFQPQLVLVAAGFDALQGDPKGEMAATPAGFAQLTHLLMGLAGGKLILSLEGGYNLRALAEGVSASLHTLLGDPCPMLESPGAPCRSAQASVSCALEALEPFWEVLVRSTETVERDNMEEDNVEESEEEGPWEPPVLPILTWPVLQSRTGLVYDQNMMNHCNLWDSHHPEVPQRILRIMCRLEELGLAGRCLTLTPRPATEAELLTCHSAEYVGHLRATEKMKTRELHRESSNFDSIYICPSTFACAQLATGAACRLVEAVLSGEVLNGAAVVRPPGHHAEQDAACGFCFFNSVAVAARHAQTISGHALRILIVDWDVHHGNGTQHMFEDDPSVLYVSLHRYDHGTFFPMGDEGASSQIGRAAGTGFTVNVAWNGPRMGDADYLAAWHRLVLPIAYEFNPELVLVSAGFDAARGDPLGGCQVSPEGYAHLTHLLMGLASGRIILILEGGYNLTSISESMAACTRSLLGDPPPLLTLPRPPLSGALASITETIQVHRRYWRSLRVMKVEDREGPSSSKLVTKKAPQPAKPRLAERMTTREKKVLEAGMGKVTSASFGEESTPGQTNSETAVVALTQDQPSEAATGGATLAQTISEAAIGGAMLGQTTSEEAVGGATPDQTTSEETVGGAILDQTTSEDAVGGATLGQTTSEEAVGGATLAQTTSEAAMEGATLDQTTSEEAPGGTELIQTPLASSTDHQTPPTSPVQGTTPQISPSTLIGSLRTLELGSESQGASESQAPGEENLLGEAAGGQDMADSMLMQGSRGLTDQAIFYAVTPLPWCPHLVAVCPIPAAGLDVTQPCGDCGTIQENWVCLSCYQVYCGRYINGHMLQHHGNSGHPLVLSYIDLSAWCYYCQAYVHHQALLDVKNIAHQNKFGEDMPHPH
# Procedure: (§2) The HDAC inhibitory activity was determined by fluorescence-coupled acetylated peptide substrate assay (Lys-Ac-AMC). HDAC1 protein was purchased from BPS Bioscience, and the reaction buffer system was a modified tris(hydroxymethyl)aminomethane buffer (pH 7.0). The small molecule compounds of the present invention were prepared by being dissolved in 100% DMSO. HDAC was prepared in a buffer at a certain concentration as an enzyme solution; trypsin and fluorescent group 4-amino-7-coumarin coupled-acetylated peptide (Ac-peptide) substrate were prepared in a buffer at a certain concentration as a substrate solution. The compounds were added into the reaction wells in a 384-well plate at a designed concentration of 10 μM, 1 μM, 0.5 μM, 0.1 μM, 0.05 μM, 0.01 μM, 0.005 μM, 0.001 μM, and 0.00005 μM, respectively, and then 15 μl of the HDAC solution was added into the reaction wells (15 μl of blank buffer to the control well). […] The results were analyzed by GraphPad Prism software and IC50 values were calculated according to the formula: Y=Background Data+(Top Data−Background Data)/(1+10^((Log IC50−X) a curve slope)), where Y: the inhibition rate (%) and X: the concentration of the compound.
# HDAC8 = target: T2, HDAC8 (Homo sapiens, UniProt Q9BY41); assay: as above
# T2 sequence (Q9BY41 1-377): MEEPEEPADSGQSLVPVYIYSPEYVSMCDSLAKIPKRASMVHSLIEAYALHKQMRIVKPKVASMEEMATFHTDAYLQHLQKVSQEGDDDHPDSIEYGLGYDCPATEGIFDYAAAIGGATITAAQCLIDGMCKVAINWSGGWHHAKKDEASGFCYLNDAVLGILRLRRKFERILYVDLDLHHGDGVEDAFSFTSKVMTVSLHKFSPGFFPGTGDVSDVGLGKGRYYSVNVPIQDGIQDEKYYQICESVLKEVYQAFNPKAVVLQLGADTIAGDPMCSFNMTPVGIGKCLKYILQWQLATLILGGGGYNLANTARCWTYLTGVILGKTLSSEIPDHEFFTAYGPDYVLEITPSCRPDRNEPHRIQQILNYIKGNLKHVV
# Procedure: as §2
# HDAC1 = target: T3, HDAC1 (Homo sapiens, UniProt Q13547); assay: HDAC inhibitory activity, fluorescence-coupled acetylated peptide substrate assay (Lys-Ac-AMC); assay type: biochemical
# T3 construct: purchased BPS Bioscience
# T3 sequence (Q13547 whole entry): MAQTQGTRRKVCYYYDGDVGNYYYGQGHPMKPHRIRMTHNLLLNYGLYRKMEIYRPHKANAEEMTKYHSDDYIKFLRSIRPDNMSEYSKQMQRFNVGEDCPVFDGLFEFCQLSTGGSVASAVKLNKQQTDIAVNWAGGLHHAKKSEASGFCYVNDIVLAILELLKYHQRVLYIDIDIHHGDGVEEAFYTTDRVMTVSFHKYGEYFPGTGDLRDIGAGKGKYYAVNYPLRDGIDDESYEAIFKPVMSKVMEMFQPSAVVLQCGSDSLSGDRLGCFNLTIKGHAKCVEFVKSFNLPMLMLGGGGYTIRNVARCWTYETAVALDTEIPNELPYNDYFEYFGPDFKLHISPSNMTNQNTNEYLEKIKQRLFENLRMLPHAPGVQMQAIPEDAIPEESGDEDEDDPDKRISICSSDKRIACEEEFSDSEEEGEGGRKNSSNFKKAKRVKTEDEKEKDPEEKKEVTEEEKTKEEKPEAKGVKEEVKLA
# Procedure: as §2
# HCT116 cells = assay: Therapeutic effect on the colon cancer HCT116 model (intravenous); details: for survival time of mice: 9 times, vs blank control, P<0.01; for effect prolonging the survival time compared with positive control group: SAHA 50 mg/kg intraperitoneally
# [2] = test system: Human lung cancer cell H460; assay: Cell proliferative activity (MTT / cck-8); assay type: cell-based; details: NCI-H460, incubated for 96 hours, read-out: Half-Inhibitory Concentration IC50 Human lung cancer cell H460
# Procedure: (§1) Tumor cell line A375: human melanoma cell; H460: lung adenocarcinoma cell; Hela: human cervical cancer cell; HepG2: human liver cancer cell; and SKOV-3: human ovarian cancer cell, were all purchased from ATCC and cultured to logarithmic phase according to the cultivation protocol recommended by ATCC. The cells in the logarithmic phase were plated onto a 96-well plate at 2000-3000 cells/well; in the case of adherent cells, the cells should be adherent to the wall. […] After that, the cell proliferative activity was determined by MTT assay for the tumor cells representing the solid tumor model and by cck-8 assay for the tumor cells representing the hematologic tumor model.
# [3] = test system: Human cervical cancer cell Hela; assay: Cell proliferative activity (MTT / cck-8); assay type: cell-based; details: incubated for 96 hours, read-out: Half-Inhibitory Concentration IC50 Human cervical cancer cell Hela
# Procedure: as §1
# [4] = test system: Human liver cancer cell HepG2; assay: Cell proliferative activity (MTT / cck-8); assay type: cell-based; details: incubated for 96 hours, read-out: Half-Inhibitory Concentration IC50 Human liver cancer cell HepG2
# Procedure: as §1
# Human melanoma A375 = assay: Cell proliferative activity (MTT / cck-8); assay type: cell-based; details: A-375, incubated for 96 hours, read-out: Half-Inhibitory Concentration IC50 Human melanoma A375
# Procedure: as §1
# [5] = test system: Human ovarian cancer cell SKOV-3; assay: Cell proliferative activity (MTT / cck-8); assay type: cell-based; details: SK-OV-3, incubated for 96 hours, read-out: Half-Inhibitory Concentration IC50 Human ovarian cancer cell SKOV-3
# Procedure: as §1
Compound,IC50 (HDAC6; Table 2) [nM],IC50 (HDAC6; Table 3) [nM],Selection Ratio HDAC1/6 (HDAC6),Selection Ratio HDAC8/6 (HDAC6),"IC50 (HDAC8; IC50 HDAC8, Table 2) [nM]","IC50 (HDAC8; read-out: IC50 HDAC8, Table 3) [nM]",IC50 (HDAC1; Table 2) [nM],IC50 (HDAC1; Table 3) [nM],IC50 [2] [nM],IC50 [3] [nM],IC50 [4] [nM],IC50 (Human melanoma A375) [nM],IC50 [5] [nM],further results
FK228,,,,,,,,,,,,,,incidence of medication-related adverse reactions above Phase III ([1]; clinical data): up to 66%; toxic side effects ([1]; clinical data): cardiotoxicity
"Cc1nc(N(C)c2ccc(OCCCC(=O)NO)cc2)c2ccccc2n1 [II-2, N-hydroxy-4-(4-(methyl(2-methyl-4-quinazolinyl)amino)phenoxy)butanamide]",100 to 1000,196,0.4,7.5,> 1000,1460,10 to 100,84,100 to 1000,100 to 1000,10 to 100,100 to 1000,10 to 100,survival time of mice (HCT116 cells; 50 mg/kg intravenously once every other day): significantly prolonged the survival time of mice; effect prolonging the survival time compared with positive control group (HCT116 cells; 50 mg/kg intravenously): superior to that of the positive control group
Nc1ccccc1NC(=O)c1ccc(CNC(=O)OCc2cccnc2)cc1 [Entinostat],,,,,,,,,,,,,,"elimination half-life in human body ([1]; human, clinical trials): ~100 h"
"COc1ccc(N(C)c2nc(C)nc3ccccc23)cc1OCC(=O)NO [III-1, N-hydroxy-2-(2-methoxy-5-(methyl(2-methyl-4-quinazolinyl)amino)phenoxy) acetamide]",> 1000,,,,> 1000,,> 1000,,< 10,< 10,< 10,10 to 100,< 10,survival time of mice (HCT116 cells; 10 mg/kg intravenously once every other day): significantly prolonged the survival time of mice; effect prolonging the survival time compared with positive control group (HCT116 cells; 10 mg/kg intravenously): superior to that of the positive control group

# More lines, main results first:
IC50 (HDAC6; Table 2) [nM],IC50 (HDAC6; Table 3) [nM],Selection Ratio HDAC1/6 (HDAC6),Selection Ratio HDAC8/6 (HDAC6),"IC50 (HDAC8; IC50 HDAC8, Table 2) [nM]","IC50 (HDAC8; read-out: IC50 HDAC8, Table 3) [nM]",IC50 (HDAC1; Table 2) [nM],IC50 (HDAC1; Table 3) [nM],IC50 [2] [nM],IC50 [3] [nM],IC50 [4] [nM],IC50 (Human melanoma A375) [nM],IC50 [5] [nM],Compound,further results
10 to 100,72,7.7,68.5,> 1000,,100 to 1000,552,100 to 1000,100 to 1000,100 to 1000,100 to 1000,100 to 1000,"Cc1nc(N(C)c2ccc(Oc3ccc(C(=O)NO)cc3)cc2)c2ccccc2n1 [II-6, N-hydroxy-4-(4-(methyl(2-methyl-4-quinazolinyl)amino)phenoxy)benzamide]","IC50 (HDAC8; IC50 HDAC8, Table 3): 4930 nM"
10 to 100,57,7.9,29.8,> 1000,1700,100 to 1000,451,100 to 1000,> 1000,> 1000,> 1000,100 to 1000,"Cc1nc(N(C)c2ccc(OCCCCC(=O)NO)cc2)c2ccccc2n1 [II-3, N-hydroxy-5-(4-(methyl(2-methyl-4-quinazolinyl)amino)phenoxy)pentanamide]",
10 to 100,49,4.1,27.1,> 1000,1330,100 to 1000,203,> 1000,> 1000,> 1000,> 1000,> 1000,"CN(c1ccc(OCCCCC(=O)NO)cc1)c1ncnc2ccccc12 [II-14, N-hydroxy-5-(4-(methyl(4-quinazolinyl)amino)phenoxy)pentanamide]",
< 10,10,38.5,167.6,> 1000,,100 to 1000,385,> 1000,> 1000,> 1000,> 1000,> 1000,"CN(c1ccc(OCc2ccc(C(=O)NO)cc2)cc1)c1ncnc2ccccc12 [II-16, N-hydroxy-4-((4-(methyl(4-quinazolinyl)amino)phenoxy)methyl)benzamide]","IC50 (HDAC8; IC50 HDAC8, Table 3): 1680 nM"
10 to 100,34,2.2,72.3,> 1000,2460,10 to 100,76,100 to 1000,100 to 1000,100 to 1000,100 to 1000,100 to 1000,"CN(c1ccc(OCCCC(=O)NO)cc1)c1ncnc2ccccc12 [II-13, N-hydroxy-4-(4-(methyl(4-quinazolinyl)amino)phenoxy)butanamide]",
